{"source": "patent US7449495B2", "about": "“Retinoid derivatives with antiangiogenic, antitumoral and proapoptotic activities” (Sigma-Tau Industrie Farmaceutiche Riunite S.p.A., priority 2001, dated 2008)", "key": {"[1]": {"tested_on": "NB4 acute promyelocytic leukaemia cell line", "assay": "Cytotoxicity test (sulphorodamine B), NB4", "type": "cell-based, human", "conditions": "24 h incubation, survival 48 h after removal, read-out: IC50", "from_the_text": "To carry out the cytotoxicity tests, two acute promyelocytic leukaemia (APL) cell lines were used. • 1. Cell line NB4, carrying the chromosomal translocation t(15; 17) which generates the fusion protein PML/RARα. This cell line is extremely sensitive to the differentiating action of pharmaceutical doses of ATRA (10^−7-10^−6 M); • 2. Cell line HL60, which responds to ATRA less sensitively with respect to cell line NB4.\nThese cell lines were maintained in RPMI 1640 containing 10% foetal calf serum (FCS) and 1% glutamine.\nThe cytotoxicity tests were carried out using NB4 or HL-60 cells in suspension (10000/well). The cells were seeded in a volume of 250 μl in 96 well plates and incubated for 24 hours at 37° C. The following day, test compound ST 1926 [(2E)-3-[3′-(1-Adamantyl)-4′-hydroxy[1,1′-biphenyl]-4-yl]-2-propenoate/ic acid] was added at increasing concentrations, and the cells were incubated for a further 24 hours at 37° C. in a humidified atmosphere containing 5% CO2. On the 3rd day, the medium was removed by centrifuging the plate at 1600×g for 10 min and the supernatant decanted. 250 μl of PBS were added; then the plates were centrifuged again at 1600×g for 10 minutes and the supernatant decanted. 200 μl/well of RPMI 1640 medium containing 10% FCS were added and the plates were incubated at 37° C. for a further 48 hours. On the 5th day, the plates were again centrifuged at 1600×g for 10 minutes, and the medium was removed by upturning the plates, 200 μl of PBS and 50 μl of cold, 80% TCA were added. The plates were then left to incubate on ice for at least 1 hour. The TCA was removed by upturning; the plates were washed three times by immersion in distilled water and dried first on paper, then with a jet of hot air. To all wells were added 200 μl of 0.4% sulphorodamine B in 1% acetic acid. The plates were incubated at room temperature for a further 30 minutes. […] The optical density was measured using a Multiskan spectrophotometer at 540 nm.\nCell survival was determined by incubation with ST1926 for 24 hours, 48 hours after the removal of the compound. […]"}, "[2]": {"tested_on": "Human Promyelocytic Leukaemia NB4 Cells", "assay": "Cyto-fluorometric cell cycle analysis, NB4", "type": "cell-based", "conditions": "3 days; for G0/G1 / G2 + M / S: percentage of cell cycle phase", "description": "To evaluate the effect of the compound according to the invention, on various phases of the cell cycle, cyto-fluorometric cell cycle analyses were performed.\nHL60 or NB4 cells were seeded onto plates at a density of 150.000 cells/ml in RPMI 1640 medium containing 10% FCS, the test compound (ST 1926) was added, solubilised in 0.1% DMSO at concentrations of between 0.01 and 0.1 μM, in the presence or absence of sub-optimal doses of ATRA (5-10 nM for NB4 and 0.5 μM for HL60) in the dark and placed in an incubator for 3 days without changing the culture medium.\nOn the third day of treatment 500.000 cells were sampled, centrifuged at 180×g for 5 minutes, washed twice in calcium and magnesium free PBS. The cells (1×10^6/ml of fixative) were fixed for at least 1 hour in a fixation mixture comprised of acetone/methanol 1:4 v/v maintained at −20° C. and 50% of calcium and magnesium free PBS; then the cells were centrifuged, washed in calcium and magnesium free PBS, and again centrifuged and washed. The cellular precipitate was incubated for 30 minutes in the dark at room temperature with 200 μl of […] (100 μg/ml) and 200 μl of RNAse (150 KU/mg).\nThe samples with filtered through nylon filters (60-80 μm diameter) and analysed by cyto-fluorimeter FACScan (Becton Dickinson), acquiring 20000 events/sample, at an excitation wavelength of 488 nm and emission wavelength of 620 nm. The analysis of the percentages of the cell cycle phases was performed using a dedicated software package, Modfit v. 2.0 (Becton Dickinson)."}, "[3]": {"tested_on": "BMEC cells", "assay": "Endothelial BMEC cells chemotaxis (Boyden chamber)", "type": "cell-based, bovine", "conditions": "50 and 25 μM", "description": "The capacity of ST1879 to inhibit cellular migration through the polycarbonate filter in the direction of the chemoattractant factor, was quantitatively evaluated by counting the number of cells present on the lower side of the filter. The percentages of migration reported in table 8 were calculated according to the formula: (treated−control/control)×100."}}, "note": "Where two headings read alike, the source gives them in different places.", "data": [{"smiles": "O=C(O)/C=C/c1ccc(-c2ccc(O)c(C34CC5CC(CC(C5)C3)C4)c2)cc1", "note": "[ST1926, E-4-(3-(1-adamantyl)-4-hydroxyphenyl)cinnamic acid]", "values": [{"measurement": "IC50", "setting": "[1]", "value": 20, "unit": "nM"}, {"measurement": "IC50", "setting": "[1]; Homo sapiens", "value": 22, "unit": "nM"}, {"measurement": "APOPTOSIS", "setting": "[2]; NB4, 0.01 μM", "value": 19.9}, {"measurement": "G0/G1", "setting": "[2]; NB4, 0.01 μM", "value": 48.4}, {"measurement": "G2 + M", "setting": "[2]; NB4, 0.01 μM", "value": 12.8}, {"measurement": "S", "setting": "[2]; NB4, 0.01 μM", "value": 38.8}, {"measurement": "APOPTOSIS", "setting": "[2]; NB4, 0.02 μM", "value": 28.4}, {"measurement": "G0/G1", "setting": "[2]; NB4, 0.02 μM", "value": 48.2}, {"measurement": "G2 + M", "setting": "[2]; NB4, 0.02 μM", "value": 12.4}, {"measurement": "S", "setting": "[2]; NB4, 0.02 μM", "value": 39.4}, {"measurement": "APOPTOSIS", "setting": "[2]; NB4, 0.04 μM", "value": 33.9}, {"measurement": "G0/G1", "setting": "[2]; NB4, 0.04 μM", "value": 51.3}, {"measurement": "G2 + M", "setting": "[2]; NB4, 0.04 μM", "value": 13.0}, {"measurement": "S", "setting": "[2]; NB4, 0.04 μM", "value": 35.7}, {"measurement": "APOPTOSIS", "setting": "[2]; NB4, 0.08 μM", "value": 45.0}, {"measurement": "G0/G1", "setting": "[2]; NB4, 0.08 μM", "value": 41.4}, {"measurement": "G2 + M", "setting": "[2]; NB4, 0.08 μM", "value": 5.0}, {"measurement": "S", "setting": "[2]; NB4, 0.08 μM", "value": 53.6}, {"measurement": "APOPTOSIS", "setting": "[2]; NB4, 0.1 μM", "value": 53.6}, {"measurement": "G0/G1", "setting": "[2]; NB4, 0.1 μM", "value": 50.6}, {"measurement": "G2 + M", "setting": "[2]; NB4, 0.1 μM", "value": 3.3}, {"measurement": "S", "setting": "[2]; NB4, 0.1 μM", "value": 46.1}, {"measurement": "effect on the cell cycle of NB4 (in words)", "setting": "[2]; NB4, 0.08 and 0.1 μM", "value": "induces growth arrest in the duplication S phase of the cycle and apoptosis"}, {"measurement": "chemotaxis of the BMEC cells towards FCS (in words)", "setting": "[3]", "value": "inhibition of chemotaxis"}]}]}
